SMILES strings stand for the structures. Entries after “also recorded” stand apart in the source; their conditions may differ.

Assay [1] concerns diet-induced obesity in C57BL/6 mice. Put plainly: Mouse diet-induced obesity: type II diabetes, hyperlipidemia and metabolic syndrome. It counts as in vivo. Conditions: 10 mg/kg/day, 6 weeks; for total cholesterol / triglycerides / blood glucose: vs vehicle; for blood glucose: two-tailed T test. How it is done:
To evaluate treatment with DHCQ and HCQ on a mouse model of diet-induced type II diabetes, hyperlipidemia and metabolic syndrome, C57BL/6 mice (8 per group) were fed a high-fat “western-style” diet (60% caloric content from fat; Taconic). In an analogous fashion to that in Example 6, two weeks following initiation of the high-fat diet groups of mice were initiated on treatment with vehicle control, HCQ (10 mg/kg/day) or the HCQ metabolites DHCQ (10 mg/kg/day), DCQ (10 mg/kg/day), or BDCQ (10 mg/kg/day). After 6 weeks of treatment, blood was collected for analysis of glucose, triglyceride, and cholesterol levels.

The subject of assay [2] is collagen-induced arthritis (CIA) in DBA/1 mice. Put plainly: Collagen-induced arthritis (CIA) mouse model for RA, treatment from first immunization. It counts as in vivo. As to conditions: 50 mg/kg/day oral gavage, 100 mg/kg/day loading day 14-21; vs vehicle, Mann Whitney U test P<0.05.
The subject of assay [3] is experimental autoimmune encephalomyelitis (EAE) in SJL mice. Put plainly: EAE mouse model for MS, prevention (treatment from immunization). It counts as in vivo. Conditions: for EAE clinical score (development and severity): 100 mg/kg/day oral gavage from immunization, 50 mg/kg/day from day 8, vs vehicle or BDCQ, P<0.05. An excerpt: Experimental autoimmune encephalomyelitis (EAE), a mouse model for MS, was induced in SJL mice (n=10 per group) by immunization with proteolipid protein peptide 139-151 (PLP 139-151) in CFA. […] Starting on day 8, mice were scored daily for the severity of EAE.

For assay [4], the system named is established EAE in SJL mice. Nature of the assay: EAE mouse model for MS, treatment of established disease. Format: in vivo. Conditions: for EAE clinical score (severity of established EAE): 100 mg/kg/day oral gavage from day 14, 50 mg/kg/day 8 days later; for EAE clinical score (severity of established EAE) / Inflammatory Foci Score in the parenchyma / Inflammatory Foci Score, total score / Inflammatory Foci Score in the meninges: vs vehicle; for Inflammatory Foci Score in the parenchyma / Inflammatory Foci Score, total score / Inflammatory Foci Score in the meninges: brain histology at termination; for Inflammatory Foci Score in the meninges: P<0.05 two-tailed T test. An excerpt: Experimental autoimmune encephalomyelitis (EAE), a mouse model for MS, was induced in SJL mice (n=10 per group) by immunization with proteolipid protein peptide 139-151 (PLP 139-151) in CFA. […] At the termination of the experiment, mice were sacrificed, and the brains harvested, fixed, sections histologically scored by a blinded examiner for the number of inflammatory foci in the meninges and parenchyma using an established “Inflammatory Foci Score” (Chang et al, Recovery from EAE is associated with decreased survival of encephalitogenic T cells in the CNS of B7-1/B7-2-deficient mice. European J. Immunology, 2003, 33(7):2022-32).

In assay [5] the test system is DMM-induced OA in C57BL6 (B6) mice. Nature of the assay: Destabilization of the medial meniscus (DMM) mouse model of osteoarthritis. Conditions: 3 months, vs vehicle; for Cartilage Degeneration Score (OA score): aminoquinolines 100 mg/kg/day, atorvastatin 40 mg/kg/day, oral gavage from 1 week after DMM, two-tailed T test. Format: in vivo. How it is done: One week following surgical induction, treatment was initiated with vehicle control, hydroxychloroquine (HCQ), or desethylhydroxychloroquine (DHCQ) dosed at 100 mg/kg/day by oral gavage (once per day). After 3 months, mice were sacrificed, joints harvested, joint sections cut, and tissue sections stained with safranin-O. An examiner blinded to treatment used microscopy to score the severity of OA. The “Cartilage Degeneration Score” (also known as the “OA score”, “Severity Score” and “Histology Score”) was determined by a blinded examiner, and the two-tailed T test used to determine if there were statistical differences in the Cartilage Degeneration Scores between groups.
The histologic sections generated at the termination of the mouse OA experiment presented above and in FIG. 5 were subject to blinded scoring for the “Osteophyte Score” (measure of the amount of osteophyte or ectopic bone formation) and “Synovitis Score” (measure of the amount of synovial and joint inflammation). The scores between groups were compared by two-tailed T test.
Experiments were performed under protocols approved by the Stanford University Committee of Animal Research and in accordance with NIH guidelines. Murine OA was generated by surgically by destabilization of the DMM (Glasson, S., S., et al., Osteoarthritis Cartilage, 15: 1061-1069 (2007)).
Mice were euthanized 3 months after surgery. Their stifle joints were decalcified in EDTA solution, fixed in 4% paraformaldehyde, and embedded in paraffin. Serial 4 micron sections were cut and stained with toluidine blue. Scoring of arthritis in these histology sections was done according to a modified version of previously described composite scoring systems (Kamekura, S., et al. Osteoarthritis Cartilage 13: 632-641 (2005); Bendele, A. M., J Musculoskelet Neuronal Interact., 1: 363-376 (2001)). The “OA Score” was calculated as follows: cartilage degeneration (0-4) was multiplied by the width (1=1/3, 2=2/3, and 3=3/3 of surface area) of each third of the femoral-medial and tibial-medial condyles, and the scores for the 6 regions were summed. To evaluate osteophyte (ectopic bone) formation, we scored toluidine-blue-stained sections according to a previously described scoring system (Kamekura, S., et al. Osteoarthritis development in novel experimental mouse models induced by knee joint instability. Osteoarthritis Cartilage 13, 632-641 (2005)): 0, none; 1, formation of cartilage-like tissues; 2, increase of cartilaginous matrix; 3, endochondral ossification. To evaluate synovitis, we scored H&E-stained sections according to a previously described scoring system (Blom, A. B., et al. Synovial lining macrophages mediate osteophyte formation during experimental osteoarthritis. Osteoarthritis Cartilage 12, 627-635 (2004)): 0, no changes compared to normal joints; 1, thickening of the synovial lining and some influx of inflammatory cells; 2, thickening of the synovial lining and intermediate influx of inflammatory cells; and 3, profound thickening of the synovial lining (more than four cell layers) and maximal observed influx of inflammatory cells. Scores for osteophyte formation and synovitis were recorded for the femoral-medial and the tibial-medial condyles on the operated side of the joint, and the scores for the two regions were summed and statistical comparisons performed using a two-tailed T test.
Treatment was started 1 week after surgical induction of destabilization of the medial meniscus (DMM), a time point at which mice were at increased risk for the development of OA.

Assay [6] relates to established high-fat diet-induced NASH in C57BL/6 mice. Nature of the assay: High fat diet-induced NASH in mice, treatment of established disease. It counts as in vivo, mouse. As to conditions: 6 weeks; for steatosis percentage of whole area (liver histology): 10 mg/kg/day started after 2 weeks of high-fat diet; for steatosis percentage of whole area (liver histology) / serum ALT / serum AST: vs vehicle. How it is done: To evaluate the effect of DHCQ and HCQ on established NASH, C57BL/6 mice (8 per group) were fed a high-fat “western-style” diet (60% caloric content from fat; Taconic). Following initiation of the high-fat diet, after 2 weeks blood was drawn and analyzed for abnormal elevations in serum markers for NASH including AST and ALT. The AST and ALT became abnormally elevated following the initial 2 weeks of high-fat diet, and at that time treatment was initiated with HCQ (10 mg/kg/day), DHCQ (10 mg/kg/day), or vehicle control. After 6 weeks of treatment, mice were fasted and blood was collected for serum analysis and mice sacrificed for histologic analysis of liver pathology. FIG. 8A presents micrographs of representative liver tissue sections at both 10× and 20× magnification. […] AST and ALT levels in the collected serum were measured and 2-tailed T Tests used to compare levels between groups.

Regarding `CC(CCCNCCO)Nc1ccnc2cc(Cl)ccc12` (stereo not drawn) [DHCQ, desethylhydroxychloroquine], in assay [1], the “treatment of diet-induced metabolic disease compared to HCQ, DCQ and BDCQ” value is “statistically more effectively than HCQ, DCQ and BDCQ”; the total cholesterol result is on record as “statistical reductions in total cholesterol”; the triglycerides result is “statistical reductions”; the blood glucose result is given as “statistical reduction in blood glucose levels”. For the same compound, the “arthritis score (development of disease and disease activity)” value in assay [2] was “statistically reduced development of disease and reduced disease activity; also recorded: statistically lower”. In addition, the “EAE clinical score (development and severity)” value in assay [3] was “prevented development of and reduced the severity of EAE”. In assay [3] (at several timepoints, P<0.05 Mann Whitney U test), the “EAE disease activity compared to HCQ treatment” value is reported as “statistically superior activity”. In assay [4], the “EAE clinical score (severity of established EAE)” value is given as “reducing the severity of EAE”; the “Inflammatory Foci Score in the parenchyma” value is on record as “statistically reduced”; the “Inflammatory Foci Score, total score” value is “statistically reduced”; the “Inflammatory Foci Score in the meninges” value was “statistically reduced”. Moreover, in assay [4] (mouse, in vivo), the “therapeutic activity in established EAE compared to HCQ” value is listed as “more robust therapeutic activity than treatment with HCQ”. In addition, the “Osteophyte Score” value in assay [5] (100 mg/kg/day oral gavage) is “statistically prevented and reduced; also recorded: statistically significant protection against the development of synovitis and osteophytes”. Besides, in assay [5], the “Cartilage Degeneration Score (OA score)” value is “statistically prevented and reduced the severity of OA; also recorded: statistically prevented and reduced the severity of cartilage degeneration”. Besides, the “Synovitis Score” value in assay [5] (oral gavage) was “statistically prevented and reduced; also recorded: statistically significant protection against the development of synovitis and osteophytes”. For the same compound, the “steatosis percentage of whole area (liver histology)” value in assay [6] is “statistically reduced the steatosis percentage”. For the same compound, in assay [6] (10 mg/kg/day), the “AST and ALT compared to treatment with HCQ” value is “statistical reductions in the AST and ALT as compared to treatment with HCQ”; the “serum ALT” value is listed as “statistically reduced abnormal elevations”; the “serum AST” value was “statistically reduced abnormal elevations”.
For `CCN(CCO)CCCC(C)Nc1ccnc2cc(Cl)ccc12` (stereo not drawn) [HCQ, hydroxychloroquine], in assay [1], the total cholesterol entry is recorded as “did not result in statistical reductions”, the triglycerides result was “did not result in statistical reductions” and the blood glucose entry is reported as “did not result in statistical reductions in blood glucose”. For the same compound, in assay [2], the “arthritis score (development of disease and disease activity)” value was “statistically reduced development of disease and reduced disease activity; also recorded: statistically lower”. In addition, the “EAE clinical score (development and severity)” value in assay [3] was “prevented development of and reduced the severity of EAE”. Moreover, in assay [4], the “EAE clinical score (severity of established EAE)” value is given as “reducing the severity of EAE”; the “Inflammatory Foci Score in the parenchyma” value is “trends towards reductions”; the “Inflammatory Foci Score, total score” value was “trends towards reductions”; the “Inflammatory Foci Score in the meninges” value is recorded as “reduced”. Also, the “Cartilage Degeneration Score (OA score)” value in assay [5] was “only resulted in trends towards improvement; also recorded: did not result in a statistically significant reduction in the severity of OA”. The “Cartilage Degeneration Score (OA score)” value in assay [5] (listed as Hydroxychloroquine) is “did not result in a statistically signification prevention or reduction in OA severity”. Also, in assay [6], the “steatosis percentage of whole area (liver histology)” value was “statistically reduced the steatosis percentage”. In addition, in assay [6] (10 mg/kg/day), the “serum ALT” value is “only exhibited a trend towards reduction” and the “serum AST” value is on record as “only exhibited a trend towards reduction”.

The values are drawn from patent US9931335B2, “Desethylhydroxychloroquine for the treatment of diseases associated with inflammation” (The Board of Trustees of the Leland Stanford Junior …, priority 2013, dated 2018).
